In the kinase profiling compilation of Christmann-Franck et al. (2016):

Columns and labels:
Experiment in all cases: radiometric filter-binding kinase assay
[1] = target: AKT1 (human) (UniProt P31749); conditions: ATP 5 µM
[2] = target: AURKC (human) (UniProt Q9UQB9); conditions: ATP 5 µM
[3] = target: CAMKK1 (human) (UniProt Q8N5S9); conditions: ATP 20 µM
[4] = target: CDK2 CCNA2 (human) (UniProt P24941+P20248); conditions: compound 1.0 µM; ATP 20 µM
[5] = target: CHEK1 (human) (UniProt O14757); conditions: compound 10.0 µM; ATP 20 µM
[6] = target: CSNK1D (human) (UniProt P48730); conditions: compound 10.0 µM; ATP 20 µM
[7] = target: IKBKE (human) (UniProt Q14164); conditions: ATP 50 µM
[8] = system: LCK (mouse); conditions: ATP 50 µM, accession and sequence are those of the human protein
[9] = target: MAPK11 (human) (UniProt Q15759); conditions: compound 10.0 µM; ATP 20 µM
[10] = target: MAPK9 (human) (UniProt P45984); conditions: compound 1.0 µM; ATP 20 µM
[11] = target: MAPKAPK3 (human) (UniProt Q16644); conditions: ATP 20 µM
[12] = target: MAPKAPK5 (human) (UniProt Q8IW41); conditions: ATP 20 µM
[13] = target: MELK (human) (UniProt Q14680); conditions: ATP 50 µM
[14] = target: MKNK1 (human) (UniProt Q9BUB5); conditions: ATP 50 µM
[15] = target: MKNK2 (human) (UniProt Q9HBH9); conditions: compound 10.0 µM; ATP 50 µM
[16] = target: MYLK (human) (UniProt Q15746); conditions: ATP 50 µM
[17] = target: NEK6 (human) (UniProt Q9HC98); conditions: compound 10.0 µM; ATP 50 µM
[18] = target: NEK7 (human) (UniProt Q8TDX7); conditions: compound 1.0 µM; ATP 20 µM
[19] = target: PAK4 (human) (UniProt O96013); conditions: ATP 5 µM
[20] = target: PAK7 (human) (UniProt Q9P286); conditions: ATP 20 µM
[21] = target: PIM2 (human) (UniProt Q9P1W9); conditions: ATP 5 µM
[22] = target: PRKCG (human) (UniProt P05129); conditions: ATP 5 µM
[23] = target: ROCK2 (human) (UniProt O75116); conditions: compound 10.0 µM; ATP 20 µM
[24] = target: RPS6KA3 KD1 KD2 (human) (UniProt P51812); conditions: ATP 50 µM
[25] = target: RPS6KA5 KD1 KD2 (human) (UniProt O75582); conditions: compound 1.0 µM; ATP 20 µM
[26] = system: RPS6KB1 (human), P23443 [T412E]; conditions: ATP 20 µM
[27] = target: TBK1 (human) (UniProt Q9UHD2); conditions: compound 1.0 µM; ATP 50 µM

Sequence of MAPKAPK5 (human) (Q8IW41 whole entry, looked up): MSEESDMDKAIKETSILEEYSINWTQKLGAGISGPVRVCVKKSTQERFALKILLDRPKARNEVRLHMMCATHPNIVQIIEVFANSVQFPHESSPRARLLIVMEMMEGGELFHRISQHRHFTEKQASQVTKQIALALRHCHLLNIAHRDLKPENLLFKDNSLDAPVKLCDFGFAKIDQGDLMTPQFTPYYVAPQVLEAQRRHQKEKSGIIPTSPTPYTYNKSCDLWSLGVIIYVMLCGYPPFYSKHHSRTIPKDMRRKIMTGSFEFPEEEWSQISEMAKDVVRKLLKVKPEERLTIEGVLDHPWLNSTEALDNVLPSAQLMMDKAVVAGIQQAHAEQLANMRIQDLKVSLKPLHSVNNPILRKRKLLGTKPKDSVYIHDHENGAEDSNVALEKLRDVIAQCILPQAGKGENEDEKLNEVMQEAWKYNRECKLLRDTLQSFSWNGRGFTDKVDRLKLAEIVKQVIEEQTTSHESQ
Sequence of AKT1 (human) (P31749 whole entry, looked up): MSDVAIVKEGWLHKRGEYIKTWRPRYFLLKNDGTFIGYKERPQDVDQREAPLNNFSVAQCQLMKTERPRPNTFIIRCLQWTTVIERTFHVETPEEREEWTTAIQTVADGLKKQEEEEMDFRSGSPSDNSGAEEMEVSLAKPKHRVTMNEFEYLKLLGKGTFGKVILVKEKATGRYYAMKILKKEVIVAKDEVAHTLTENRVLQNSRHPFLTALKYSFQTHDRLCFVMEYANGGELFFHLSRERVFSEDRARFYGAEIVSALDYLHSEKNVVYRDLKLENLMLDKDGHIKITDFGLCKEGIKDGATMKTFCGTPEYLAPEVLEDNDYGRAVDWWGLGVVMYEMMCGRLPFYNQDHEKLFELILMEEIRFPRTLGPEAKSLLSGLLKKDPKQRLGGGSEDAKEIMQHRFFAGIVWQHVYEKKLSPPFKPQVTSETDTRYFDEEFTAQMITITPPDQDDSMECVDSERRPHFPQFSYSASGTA
Sequence of MELK (human) (Q14680 whole entry, looked up): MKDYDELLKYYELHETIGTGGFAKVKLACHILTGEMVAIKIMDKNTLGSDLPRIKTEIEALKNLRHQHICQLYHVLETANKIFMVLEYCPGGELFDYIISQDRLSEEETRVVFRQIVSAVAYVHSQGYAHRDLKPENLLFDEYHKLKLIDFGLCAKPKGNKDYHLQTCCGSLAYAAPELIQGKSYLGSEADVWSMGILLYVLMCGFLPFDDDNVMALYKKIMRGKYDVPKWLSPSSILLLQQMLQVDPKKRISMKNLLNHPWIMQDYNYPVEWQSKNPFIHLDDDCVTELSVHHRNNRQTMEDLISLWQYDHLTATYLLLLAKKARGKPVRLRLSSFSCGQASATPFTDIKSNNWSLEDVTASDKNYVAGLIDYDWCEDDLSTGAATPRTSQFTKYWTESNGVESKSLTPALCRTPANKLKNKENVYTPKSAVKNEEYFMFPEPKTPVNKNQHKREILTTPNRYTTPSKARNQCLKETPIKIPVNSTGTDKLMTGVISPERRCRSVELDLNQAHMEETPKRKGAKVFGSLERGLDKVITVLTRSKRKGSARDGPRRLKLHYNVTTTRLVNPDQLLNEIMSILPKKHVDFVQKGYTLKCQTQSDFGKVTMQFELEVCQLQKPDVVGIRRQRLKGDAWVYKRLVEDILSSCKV
Sequence of AURKC (human) (Q9UQB9 whole entry, looked up): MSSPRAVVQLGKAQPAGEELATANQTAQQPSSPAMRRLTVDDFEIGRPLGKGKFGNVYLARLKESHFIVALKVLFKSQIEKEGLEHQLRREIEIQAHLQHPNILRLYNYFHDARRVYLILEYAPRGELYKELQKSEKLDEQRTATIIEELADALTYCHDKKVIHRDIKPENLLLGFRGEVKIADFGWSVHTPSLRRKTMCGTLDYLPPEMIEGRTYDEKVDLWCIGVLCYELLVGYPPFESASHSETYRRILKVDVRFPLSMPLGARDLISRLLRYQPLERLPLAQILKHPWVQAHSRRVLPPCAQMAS
Sequence of MYLK (human) (Q15746 whole entry, looked up): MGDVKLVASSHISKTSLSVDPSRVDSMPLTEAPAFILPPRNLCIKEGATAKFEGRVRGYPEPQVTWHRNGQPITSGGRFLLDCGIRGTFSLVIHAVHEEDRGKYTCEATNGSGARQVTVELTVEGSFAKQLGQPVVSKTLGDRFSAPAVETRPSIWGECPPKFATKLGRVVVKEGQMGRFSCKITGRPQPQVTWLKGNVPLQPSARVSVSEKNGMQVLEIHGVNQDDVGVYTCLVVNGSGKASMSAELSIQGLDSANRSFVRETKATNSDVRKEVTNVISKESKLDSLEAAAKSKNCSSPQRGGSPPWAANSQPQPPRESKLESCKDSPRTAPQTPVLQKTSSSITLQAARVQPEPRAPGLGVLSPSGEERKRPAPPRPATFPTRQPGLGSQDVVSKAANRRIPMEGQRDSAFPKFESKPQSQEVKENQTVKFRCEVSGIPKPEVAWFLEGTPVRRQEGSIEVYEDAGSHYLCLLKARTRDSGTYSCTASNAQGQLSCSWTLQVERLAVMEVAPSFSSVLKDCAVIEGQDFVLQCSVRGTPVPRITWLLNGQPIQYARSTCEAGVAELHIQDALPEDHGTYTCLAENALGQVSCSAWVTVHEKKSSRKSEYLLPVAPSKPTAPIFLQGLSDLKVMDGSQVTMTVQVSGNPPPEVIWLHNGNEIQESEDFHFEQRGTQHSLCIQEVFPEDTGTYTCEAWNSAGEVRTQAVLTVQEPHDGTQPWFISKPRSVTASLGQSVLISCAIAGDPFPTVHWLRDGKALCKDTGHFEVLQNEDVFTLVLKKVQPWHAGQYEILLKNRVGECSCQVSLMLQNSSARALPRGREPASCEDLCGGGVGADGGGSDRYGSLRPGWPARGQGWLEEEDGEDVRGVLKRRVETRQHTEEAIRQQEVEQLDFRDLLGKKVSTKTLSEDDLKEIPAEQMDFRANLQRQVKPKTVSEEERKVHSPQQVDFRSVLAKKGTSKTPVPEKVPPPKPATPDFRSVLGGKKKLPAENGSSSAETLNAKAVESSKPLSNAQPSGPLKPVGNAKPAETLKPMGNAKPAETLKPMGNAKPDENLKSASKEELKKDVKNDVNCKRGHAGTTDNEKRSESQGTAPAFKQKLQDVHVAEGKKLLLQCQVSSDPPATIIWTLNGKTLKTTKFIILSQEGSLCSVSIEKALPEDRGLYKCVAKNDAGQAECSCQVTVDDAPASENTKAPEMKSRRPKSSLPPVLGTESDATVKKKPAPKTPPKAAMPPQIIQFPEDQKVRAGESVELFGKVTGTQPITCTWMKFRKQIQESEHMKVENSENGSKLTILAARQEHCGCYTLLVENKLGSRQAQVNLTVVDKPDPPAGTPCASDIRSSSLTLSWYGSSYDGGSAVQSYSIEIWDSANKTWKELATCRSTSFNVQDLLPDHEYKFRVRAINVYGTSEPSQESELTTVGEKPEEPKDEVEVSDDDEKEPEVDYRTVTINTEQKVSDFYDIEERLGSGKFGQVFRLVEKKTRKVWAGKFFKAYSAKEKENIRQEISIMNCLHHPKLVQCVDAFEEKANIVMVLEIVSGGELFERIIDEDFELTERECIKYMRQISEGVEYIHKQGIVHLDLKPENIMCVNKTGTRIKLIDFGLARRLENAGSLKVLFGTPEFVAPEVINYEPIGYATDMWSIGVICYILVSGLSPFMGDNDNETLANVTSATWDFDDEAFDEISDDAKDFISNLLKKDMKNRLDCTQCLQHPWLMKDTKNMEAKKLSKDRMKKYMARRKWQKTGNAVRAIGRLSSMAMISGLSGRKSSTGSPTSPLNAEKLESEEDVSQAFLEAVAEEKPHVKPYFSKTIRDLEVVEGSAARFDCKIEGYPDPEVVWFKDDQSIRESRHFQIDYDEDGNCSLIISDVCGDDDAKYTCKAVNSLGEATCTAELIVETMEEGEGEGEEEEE
Sequence of RPS6KB1 (human), P23443 [T412E] (P23443 whole entry T412E, looked up): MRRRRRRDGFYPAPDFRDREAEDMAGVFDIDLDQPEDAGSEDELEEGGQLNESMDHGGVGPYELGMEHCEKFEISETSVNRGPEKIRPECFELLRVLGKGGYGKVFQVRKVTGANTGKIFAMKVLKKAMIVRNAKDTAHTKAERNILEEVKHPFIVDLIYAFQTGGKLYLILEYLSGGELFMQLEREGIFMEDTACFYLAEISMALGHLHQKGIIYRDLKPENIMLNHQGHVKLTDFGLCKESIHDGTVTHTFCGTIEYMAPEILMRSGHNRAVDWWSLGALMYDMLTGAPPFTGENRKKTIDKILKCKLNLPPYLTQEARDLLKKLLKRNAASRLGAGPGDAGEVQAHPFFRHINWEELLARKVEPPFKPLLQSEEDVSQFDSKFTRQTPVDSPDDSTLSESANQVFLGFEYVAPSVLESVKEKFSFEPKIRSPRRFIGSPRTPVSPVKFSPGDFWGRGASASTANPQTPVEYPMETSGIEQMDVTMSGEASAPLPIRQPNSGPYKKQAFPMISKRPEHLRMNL
Sequence of PIM2 (human) (Q9P1W9 whole entry, looked up): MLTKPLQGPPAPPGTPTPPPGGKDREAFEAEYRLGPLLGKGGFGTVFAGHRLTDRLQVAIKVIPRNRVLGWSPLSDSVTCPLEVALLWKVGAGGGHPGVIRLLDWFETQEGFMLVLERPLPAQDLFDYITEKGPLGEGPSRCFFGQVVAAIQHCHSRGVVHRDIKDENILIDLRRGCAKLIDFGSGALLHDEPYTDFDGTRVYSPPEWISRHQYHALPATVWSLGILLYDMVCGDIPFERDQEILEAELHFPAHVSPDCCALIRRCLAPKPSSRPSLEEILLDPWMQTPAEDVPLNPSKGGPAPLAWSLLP
Sequence of MAPKAPK3 (human) (Q16644 whole entry, looked up): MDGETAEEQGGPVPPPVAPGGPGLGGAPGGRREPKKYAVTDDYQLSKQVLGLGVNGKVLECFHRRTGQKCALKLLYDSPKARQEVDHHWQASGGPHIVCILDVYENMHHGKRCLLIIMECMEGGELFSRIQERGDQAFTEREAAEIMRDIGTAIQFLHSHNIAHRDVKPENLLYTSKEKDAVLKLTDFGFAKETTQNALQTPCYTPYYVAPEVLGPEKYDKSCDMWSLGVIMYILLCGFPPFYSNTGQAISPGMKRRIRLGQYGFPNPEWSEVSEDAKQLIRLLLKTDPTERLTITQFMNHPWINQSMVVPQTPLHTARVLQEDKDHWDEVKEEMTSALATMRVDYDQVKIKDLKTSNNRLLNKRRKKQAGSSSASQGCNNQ

CC(C)(N)c1ccc(-c2nc3ccccc3nc2-c2ccccc2)cc1
residual activity ([1]; compound 1.0 µM): 22%
residual activity ([1]; compound 10.0 µM): 8%
residual activity ([2]; compound 1.0 µM): 75%
residual activity ([2]; compound 10.0 µM): 66%
residual activity ([3]; compound 1.0 µM): 93%
residual activity ([3]; compound 10.0 µM): 62%
residual activity [4]: 97%
residual activity [5]: 85%
residual activity [6]: 111%
residual activity ([7]; compound 1.0 µM): 87%
residual activity ([7]; compound 10.0 µM): 67%
residual activity ([8]; compound 1.0 µM): 84%
residual activity ([8]; compound 10.0 µM): 65%
residual activity [9]: 114%
residual activity [10]: 105%
residual activity ([11]; compound 1.0 µM): 86%
residual activity ([11]; compound 10.0 µM): 71%
residual activity ([12]; compound 1.0 µM): 85%
residual activity ([12]; compound 10.0 µM): 79%
residual activity ([13]; compound 1.0 µM): 80%
residual activity ([13]; compound 10.0 µM): 68%
residual activity ([14]; compound 1.0 µM): 77%
residual activity ([14]; compound 10.0 µM): 84%
residual activity [15]: 80%
residual activity ([16]; compound 1.0 µM): 79%
residual activity ([16]; compound 10.0 µM): 11%
residual activity [17]: 75%
residual activity [18]: 91%
residual activity ([19]; compound 1.0 µM): 92%
residual activity ([19]; compound 10.0 µM): 49%
residual activity ([20]; compound 1.0 µM): 96%
residual activity ([20]; compound 10.0 µM): 61%
residual activity ([21]; compound 1.0 µM): 88%
residual activity ([21]; compound 10.0 µM): 89%
residual activity ([22]; compound 1.0 µM): 105%
residual activity ([22]; compound 10.0 µM): 96%
residual activity [23]: 92%
residual activity ([24]; compound 1.0 µM): 80%
residual activity ([24]; compound 10.0 µM): 74%
residual activity [25]: 81%
residual activity ([26]; compound 1.0 µM): 100%
residual activity ([26]; compound 10.0 µM): 72%
residual activity [27]: 101%
